# In patent US12458021B2, “Microbiocidal derivatives” (SYNGENTA CROP PROTECTION AG, priority 2019, dated 2025):
# Columns and labels:
# [1] = test system: Glomerella lagenarium (Colletotrichum lagenarium); test: Glomerella lagenarium (Colletotrichum lagenarium) / liquid culture (anthracnose); assay type: cell-based; details: Colletotrichum orbiculare, PDB potato dextrose broth, 24° C., 3-4 days after application, read-out: control of Glomerella lagenarium (inhibition of growth, photometric)
# Procedure: (§1) Example B3: Glomerella lagenarium (Colletotrichum lagenarium)/Liquid Culture (Anthracnose) Conidia of the fungus from cryogenic storage are directly mixed into nutrient broth (PDB potato dextrose broth). After placing a (DMSO) solution of test compound into a microtiter plate (96-well format), the nutrient broth containing the fungal spores is added. The test plates are incubated at 24° C. and the inhibition of growth is measured photometrically 3-4 days after application. […] […]-191.
# [2] = test system: Blumeria graminis f. sp. tritici (Erysiphe graminis f. sp. tritici); test: Blumeria graminis f. sp. tritici / wheat / leaf disc preventative (powdery mildew on wheat); assay type: in vivo; details: foliar, wheat leaf segments cv. Kanzler, inoculated 1 day after application, assessed 6-8 days after application, read-out: control of Blumeria graminis f. sp. tritici (percent disease control compared to untreated)
# Source text: Example B4: Blumeria graminis f. sp. tritici (Erysiphe graminis f. sp. tritici)/Wheat/Leaf Disc Preventative (Powdery Mildew on Wheat) Wheat leaf segments cv. Kanzler are placed on agar in a multiwell plate (24-well format) and sprayed with the formulated test compound diluted in water. The leaf disks are inoculated by shaking powdery mildew infected plants above the test plates 1 day after application. […] […]-192.
# [3] = test system: Magnaporthe grisea (Pyricularia oryzae); test: whole plant or invertebrate; assay type: in vivo; details: foliar, read-out: control of Magnaporthe grisea (percent disease control compared to untreated)
# [4] = test system: Mycosphaerella graminicola (Septoria tritici); test: Mycosphaerella graminicola (Septoria tritici) / liquid culture (Septoria blotch); assay type: cell-based; details: Zymoseptoria tritici, PDB potato dextrose broth, 24° C., 4-5 days after application, read-out: control of Mycosphaerella graminicola (inhibition of growth, photometric)
# Procedure: as §1, with “B15: Mycosphaerella graminicola (Septoria tritici)/Liquid” for “B3: Glomerella lagenarium (Colletotrichum lagenarium)/Liquid”, “(Septoria Blotch)” for “(Anthracnose)”, “determined” for “measured”, “4-5” for “3-4”
# [5] = test system: Monographella nivalis (Microdochium nivale); test: Monographella nivalis (Microdochium nivale) / liquid culture (foot rot cereals); assay type: cell-based; details: PDB potato dextrose broth, 24° C., 4-5 days after application, read-out: control of Monographella nivalis (inhibition of growth, photometric)
# Procedure: Example B7: Monographella nivalis (Microdochium nivale)/Liquid Culture (Foot Rot Cereals) Conidia of the fungus from cryogenic storage are directly mixed into nutrient broth (PDB potato dextrose broth). After placing a (DMSO) solution of test compound into a microtiter plate (96-well format), the nutrient broth containing the fungal spores is added. The test plates are incubated at 24° C. and the inhibition of growth is determined photometrically 4-5 days after application. […] […]-190.
SMILES,inhibition at 20 ppm [1],pest or weed control at 200 ppm [2],pest or weed control at 200 ppm [3],inhibition at 20 ppm [4],inhibition at 20 ppm [5]
"COc1ccc(N(C#N)c2cc(F)cc(F)c2)nc1C(=O)NC1CCC1(C)C (centres unmarked) [Compound P-20, 6-(N-cyano-3,5-difluoro-anilino)-N-(2,2-dimethylcyclobutyl)-3-methoxy-pyridine-2-carboxamide]",≥ 80%,≥ 80%,≥ 80%,≥ 80%,
"COc1ccc(Nc2cc(F)nc(F)c2)nc1C(=O)NCC(C)c1ccccc1 (centres unmarked) [Compound P-32, 6-[(2,6-difluoro-4-pyridyl)amino]-3-methoxy-N-(2-phenylpropyl)pyridine-2-carboxamide]",,,≥ 80%,≥ 80%,
"COc1ccc(Nc2cnsc2)nc1C(=O)NC1CCC12CCCC2 (centres unmarked) [Compound P-33, 6-(isothiazol-4-ylamino)-3-methoxy-N-spiro[3.4]octan-3-yl-pyridine-2-carboxamide]",≥ 80%,,≥ 80%,≥ 80%,≥ 80%
"COc1ccc(Nc2cc(F)nc(F)c2)nc1C(=O)NCC#CC(C)(C)C [Compound P-35, 6-[(2,6-difluoro-4-pyridyl)amino]-N-(4,4-dimethylpent-2-ynyl)-3-methoxy-pyridine-2-carboxamide]",,,≥ 80%,≥ 80%,
"COc1ccc(Nc2cc(F)nc(F)c2)nc1C(=O)NCC1(C(F)(F)F)CC1 [Compound P-49, 6-[(2,6-difluoro-4-pyridyl)amino]-3-methoxy-N-[[1-(trifluoromethyl)cyclopropyl]methyl]pyridine-2-carboxamide]",,,≥ 80%,,
"COc1ccc(Nc2cc(F)nc(F)c2)nc1C(=O)NCC1(C)CCOC2(CCC2)C1 (centres unmarked) [Compound P-52, 6-[(2,6-difluoro-4-pyridyl)amino]-3-methoxy-N-[(8-methyl-5-oxaspiro[3.5]nonan-8-yl)methyl]pyridine-2-carboxamide]",≥ 80%,≥ 80%,≥ 80%,,
"COc1ccc(Nc2cc(F)cc(F)c2)nc1C(=O)NC(C)C1CCOCC1 (centres unmarked) [Compound P-61, 6-(3,5-difluoroanilino)-3-methoxy-N-(1-tetrahydropyran-4-ylethyl)pyridine-2-carboxamide]",≥ 80%,≥ 80%,≥ 80%,,
"COc1ccc(Nc2cc(F)cc(F)c2)nc1C(=O)NCc1cnn(C)n1 [Compound P-69, 6-(3,5-difluoroanilino)-3-methoxy-N-[(2-methyltriazol-4-yl)methyl]pyridine-2-carboxamide]",,,≥ 80%,,
"COc1ccc(Nc2cc(F)cc(F)c2)nc1C(=O)NC(C)c1ncc(C)o1 (centres unmarked) [Compound P-71, 6-(3,5-difluoroanilino)-3-methoxy-N-[1-(5-methyloxazol-2-yl)ethyl]pyridine-2-carboxamide]",≥ 80%,,≥ 80%,≥ 80%,
"COc1ccc(Nc2cc(F)nc(F)c2)nc1C(=O)NC1(c2ccc(F)cc2)CC1 [Compound P-89, 6-[(2,6-difluoro-4-pyridyl)amino]-N-[1-(4-fluorophenyl)cyclopropyl]-3-methoxy-pyridine-2-carboxamide]",,,≥ 80%,,
"COc1ccc(Nc2cc(F)nc(F)c2)nc1C(=O)NC1(Cc2ccc(Cl)cc2)CC1 [Compound P-90, N-[1-[(4-chlorophenyl)methyl]cyclopropyl]-6-[(2,6-difluoro-4-pyridyl)amino]-3-methoxy-pyridine-2-carboxamide]",≥ 80%,,≥ 80%,,
"CCOc1ccc(Nc2cc(F)nc(F)c2)nc1C(=O)NC(C)(C)C [Compound P-95, N-tert-butyl-6-[(2,6-difluoro-4-pyridyl)amino]-3-ethoxy-pyridine-2-carboxamide]",≥ 80%,≥ 80%,≥ 80%,,≥ 80%
"COc1ccc(Nc2cncc(F)c2)nc1C(=O)NC(C)(C)C [Compound P-103, N-tert-butyl-6-[(5-fluoro-3-pyridyl)amino]-3-methoxy-pyridine-2-carboxamide]",,≥ 80%,≥ 80%,,
"COc1ccc(Nc2cncc(F)c2)nc1C(=O)NC1CCC1(C)C (centres unmarked) [Compound P-104, N-(2,2-dimethylcyclobutyl)-6-[(5-fluoro-3-pyridyl)amino]-3-methoxy-pyridine-2-carboxamide]",≥ 80%,≥ 80%,≥ 80%,≥ 80%,≥ 80%
"CC(C)(C)CNC(=O)c1cccc(Nc2cc(F)cc(F)c2)n1 [Compound P-111, 6-(3,5-difluoroanilino)-N-(2,2-dimethylpropyl)pyridine-2-carboxamide]",≥ 80%,,≥ 80%,≥ 80%,≥ 80%
"CC(C)(C)CNC(=O)c1cccc(Nc2cc(F)nc(F)c2)n1 [Compound P-113, 6-[(2,6-difluoro-4-pyridyl)amino]-N-(2,2-dimethylpropyl)pyridine-2-carboxamide]",≥ 80%,≥ 80%,≥ 80%,≥ 80%,≥ 80%
"COc1ccc(Nc2cc(F)nc(F)c2)nc1C(=O)NC1(C#N)CCC1 [Compound P-126, N-(1-cyanocyclobutyl)-6-[(2,6-difluoro-4-pyridyl)amino]-3-methoxy-pyridine-2-carboxamide]",,,≥ 80%,,
"COc1ccc(Nc2cc(F)cc(F)c2)nc1C(=O)NC1(C)COC1 [Compound P-128, 6-(3,5-difluoroanilino)-3-methoxy-N-(3-methyloxetan-3-yl)pyridine-2-carboxamide]",≥ 80%,≥ 80%,≥ 80%,≥ 80%,
"COc1ccc(Nc2cc(F)cc(F)c2)nc1C(=O)NC1(C#N)CCC1 [Compound P-129, N-(1-cyanocyclobutyl)-6-(3,5-difluoroanilino)-3-methoxy-pyridine-2-carboxamide]",≥ 80%,,≥ 80%,≥ 80%,
"COc1ccc(Nc2ccc(Cl)c(F)c2)nc1C(=O)NCC(C)(C)C [Compound P-144, 6-(4-chloro-3-fluoro-anilino)-N-(2,2-dimethylpropyl)-3-methoxy-pyridine-2-carboxamide]",≥ 80%,,≥ 80%,≥ 80%,≥ 80%
"COc1ccc(Nc2cc(F)c(Cl)c(F)c2)nc1C(=O)NC(C)(C)C [Compound P-153, N-tert-butyl-6-(4-chloro-3,5-difluoro-anilino)-3-methoxy-pyridine-2-carboxamide]",≥ 80%,≥ 80%,≥ 80%,≥ 80%,≥ 80%
"COc1ccc(Nc2ccc3c(c2)OCO3)nc1C(=O)NC(C)(C)C [Compound P-159, 6-(1,3-benzodioxo1-5-ylamino)-N-tert-butyl-3-methoxy-pyridine-2-carboxamide]",,,≥ 80%,,
"COc1ccc(Nc2ccc(C#N)c(F)c2)nc1C(=O)NC(C)(C)C [Compound P-164, N-tert-butyl-6-(4-cyano-3-fluoro-anilino)-3-methoxy-pyridine-2-carboxamide]",,≥ 80%,≥ 80%,,
"COc1ccc(N(C(C)=O)c2cc(F)nc(F)c2)nc1C(=O)NC1CCC1(C)C (centres unmarked) [Compound P-192, 6-[acetyl-(2,6-difluoro-4-pyridyl)amino]-N-(2,2-dimethylcyclobutyl)-3-methoxy-pyridine-2-carboxamide]",,≥ 80%,≥ 80%,,
